# Results published in US11278550B2, “Compositions and methods for the treatment of Prader-Willi syndrome” (Duke University, priority 2016, dated 2022).
# Key:
# human PWS fibroblasts = assay: Chromatin immunoprecipitation (ChIP-qPCR) of H3K9me2/H3K9me3; type: cell-based; conditions: in words
# Experimental: Histone methylations on the SNRPN locus in human fibroblasts were analyzed by chromatin immunoprecipitation assay (ChIP) using the protocol as previously reported (see Fulmer-Smentek et al., Human molecular genetics 10, 645-652 (2001)). ChIP assay was performed using ChIP-IT Express magnetic kit (Active Motif) according to the manufacturer's instructions with modification for the fixation and reverse-crosslinking steps. Briefly, native chromatin was prepared without fixation and enzymatic digestions to average 150-500 bp sized chromatin. 20 μg of chromatin was added to the specific antibodies (2 μg) or species control isotype antibodies for each immunoprecipitation reaction. The antibody-chromatin complexes were bound to protein G magnetic beads for recovering chromatin immunoprecipitates. RNase- and proteinase K-treated DNA was purified using PCR purification columns (Promega). DNA recovery was quantified by real time PCR performed on the LightCycler480 instrument (Roche) using SsoAdvanced Universal SYBR green Supermix (Biorad). Antibodies were anti-rabbit acetylated H3 (Millipore 06-599), anti-mouse monoclonal Histone H3 dimethyl K9 (Abcam 1220) and Histone H3 trimethyl K9 (Millipore, 07-442) antibodies. qPCR reactions were performed with the following cycling parameters: at 95° C./5 min followed by 40 cycles of 95° C./30 sec, 60° C./60 sec. Data was normalized to the total input.
# PWS-IC = assay: Bisulfite genomic sequencing of PWS-IC, human PWS cells; type: cell-based
# Experimental: Genomic DNA was isolated from human PWS fibroblasts or mouse tissues. DNA (1 μg) was then treated by bisulfite using the Epi-Tect bisulfite kit (Qiagen), and 125 ng input DNA was used per PCR amplification. PCR products were sub-cloned into pGEM-T easy vector (Promega) and an average of 15 clones were sequenced. DNA sequencing results were analyzed using BISMA web-based analysis platform with a setting for individual clones with <95% bisulfite conversion and <90% sequence identity to be excluded in the analysis.
# maternal Snrpn-EGFP MEFs = assay: High content screening / concentration response of Snrpn-EGFP unsilencing; type: cell-based, mouse; conditions: mS-EGFP/p+ MEFs
# Experimental: High content screenings of small molecules were performed as described in Huang, et al. Nature 481, 185-189 (2012). HCS comprises a 384-well high-content screen using primary mouse embryonic fibroblasts (MEFs) from m^S-EGFP/p^+, and searched for drug-like molecules that could unsilence the maternal S-EFGP allele. […] To perform the screen, primary MEFs were isolated from E12.5-14.5 embryos of m^S-EGFP/p^+ and cultured for 7 days in Dulbecco's modified Eagle's media supplemented with 10% fetal bovine serum, 100 Units/mL penicillin and 100 μg/mL streptomycin, at 37° C. and 5% CO2. One day before treatment with small molecules, 5,000 cells per well were plated onto 384-well plates. The cells were then treated with compounds (10 μM for 72 hours) from multiple small molecule libraries (FIG. 1f and FIG. 2). In total, 9,157 small molecules were screened in quadruplicate, normalizing values to vehicle-treatment (0.2% DMSO) (Table 1). The unsilencing of Snrpn-EGFP was determined three days after drug treatment. The immunofluorescence-processed fibroblasts were imaged for Hoechst and Alexa Fluor 488 fluorescence using a BD Pathway 855 high content imaging microscope. Antibody-enhanced Snrpn-EGPF fluorescence intensity was determined in drug-treated cells individually and normalized to cells treated with vehicle control. In order to identify potentially active compounds, an arbitrary cutoff of 125% was used where 100% indicates basal fluorescence in the vehicle-treated MEFs. Analysis was performed using Cell Profiler with custom macro and algorithms. Potential active drugs were defined as the increase in drug-mediated EGFP fluorescence consistently observed across quadruplicate wells and minimal or no cytotoxicity measured by Hoechst-stained nuclear structure (and the changes in total number of cells). After initial validation of all potential active drugs (e.g., to determine whether active compounds show inherent fluorescence, the wild-type fibroblasts were also treated), only effective hit compounds further validated in dose-response tests to determine relative efficacy (Emax) and potency (EC50). The dose-response results were analyzed by using Graphpad Prism (Graphpad Software). The calculated EC50 values (potencies) and estimated Emax (efficacy, Y-value top plateau) enabled comparative analyses of the relative potency and efficacy of the identified compounds.
# Three days after drug treatment, the cells were fixed at 4% paraformaldehyde at room temperature for 10 min, followed by rinsing with 1× PBS. The cells were permeabilized with 0.5% Triton X-100 in 1× PBS at room temperature for 10 min, followed by blocking with 5% normal goat serum in 0.1% Triton X-100 in 1× PBS at room temperature for 30 minutes. Primary rabbit anti-GFP antibody (1:1000, Novus Biologicals cat. no. NB100-1770) was incubated at 4° C. overnight. The next day, the cells were rinsed with 1× PBS and incubated with goat anti-rabbit Alexa Fluor 488 (Invitrogen cat. no. A-11008) and Hoechst at room temperature. One hour after incubation, the cells were rinsed with 1× PBS and imaged for Hoechst and Alexa Fluor 488 fluorescence using a BD Pathway 855 high content imaging microscope.
# It is not feasible to design a screen for noncoding RNA. Alternatively, SNRPN/Snprn is paternally expressed but maternally silenced in all human and mouse tissues. The allele-specific expression of human SNRPN is regulated by the PWS-IC, which also controls the expression of host transcripts for SnoRNAs, including the SNORD116 cluster between SNRPN and UBE3A. see Le Meur, E. et al., Dev. Biol. 286, 587-600 (2005). Thus, the Snrpn-EGFP fusion protein (hereafter S-EGFP) was used as a marker for high content screening (HCS). It was determined that small molecules that can unsilence S-EGFP would also be effective in reactivating the host transcript of SNORD116. […]
SMILES,level of H3K9me2 (and H3K9me3) in the PWS-IC (human PWS fibroblasts),DNA methylation of the PWS-IC (PWS-IC),activation of S-EGFP (maternal Snrpn-EGFP MEFs)
"Nc1ncn([C@H]2C[C@H](O)[C@@H](CO)O2)c(=O)n1 [5-Aza-dC, 5-aza deoxycytidine, reference compound]",reduced,significantly decreased,–
"COc1cc2nc(N3CCCN(C)CC3)nc(NC3CCN(Cc4ccccc4)CC3)c2cc1OC [BIX01294, reference compound]",–,–,did not have a substantial effect
"C[S+](CC[C@H](N)C(=O)O)C[C@H]1O[C@@H](n2cnc3c(N)ncnc32)[C@H](O)[C@@H]1O (some centres unmarked) [S-adenosyl-methionine, reference compound]",–,–,did not have an effect
"Nc1ccccc1NC(=O)c1ccc(CNC(=O)OCc2cccnc2)cc1 [entinostat, reference compound]",–,–,did not have an effect
"CC(/C=C/C(=O)NO)=C\[C@@H](C)C(=O)c1ccc(N(C)C)cc1 [trichostatin A, reference compound]",–,–,did not have an effect
"CCCC(CCC)C(=O)O [valproic acid, reference compound]",–,–,did not have an effect
"O=C(CCCCCCC(=O)Nc1ccccc1)NO [vorinostat, suberoylanilide hydroxamic acid, reference compound]",–,–,did not have an effect
